Tests used:
Peritoneal macrophage [1] = test: Antiinflammatory activity in C57BL/6J mouse peritoneal macrophages assessed as inhibition of LPS-induced NO production at 10 uM preincubated for 1 hrs followed by LPS-stimulation and measured after 24 hrs by Griess reagent-based assay relative to control; type: functional; details: time 25 hrs
Peritoneal macrophage [2] = test: Antiinflammatory activity in C57BL/6J mouse peritoneal macrophages assessed as inhibition of LPS-induced NO production preincubated for 1 hrs followed by LPS-stimulation and measured after 24 hrs by Griess reagent-based assay relative to control; type: functional, cell-based
Peritoneal macrophage [3] = test: Cytotoxicity against C57BL/6J mouse Peritoneal macrophages assessed as reduction in cell growth incubated for 1 hr; type: cell-based

| SMILES | inhibition at 10 µM (Peritoneal macrophage [1]) | IC50 (Peritoneal macrophage [2]) | Activity (Peritoneal macrophage [3]) |
| --- | --- | --- | --- |
| CC[C@](O)(C(=O)OC/C(=C\CO)C(=O)OC)[C@@H](C)O | 64.3% | 2900 nM | Non-Toxic |
| C/C=C(\CO)C(=O)OC/C(=C\CO)C(=O)OC | 84.9% | 1200 nM | Non-Toxic |

Source: ChEMBL document CHEMBL4665852, “Hydroxylated Ethacrylic and Tiglic Acid Derivatives from the Stems and Branches of Enkianthus chinensis and Their Potential Anti-inflammatory Activities” (J Nat Prod, 2020)
